# Experimental data published in patent publication US20220409617A1, “Drug Formulations and Methods of Treatment for Metabolic Disorders” (The Regents of the University of California, priority 2019, published 2022).
# Entries after “also recorded” stand apart in the source; their conditions may differ.
# System: C16:0 ceramide generation (CerS6)
# Test: C16:0 ceramide levels in palmitate-treated MEFs (UPLC-MS/MS)
# Type: cell-based, mouse
# Protocol: Plasma pharmacokinetic analysis of sphingolipid-like compound 893 was performed by Pharmaron Corporation (Beijing, China). C16:0 ceramide levels were quantified in cells using the method described in (T. Kasumov, et al., Anal. Biochem. 401: 154-161, 2010, the disclosure of which is incorporated herein by reference) with minor modifications. Cultured cells were washed twice in PBS and scraped into 250 μL of HPLC grade water and flash frozen until time of analysis. On the day of analysis, samples were thawed, and an aliquot used for protein quantification. For C16:0 ceramide levels in mouse liver, 25 mg of tissue was homogenized in 1 ml of ice-cold PBS using a mechanical probe homogenizer (VWR, Radnor, Pa.), protein levels quantified, and 50 μl of the homogenate diluted with 150 μl HPLC-grade water for C16:0 ceramide analysis. Fifty ng of C17:0 ceramide prepared in ethanol (#22532, Cayman Chemical, Ann Arbor, Mich.) was added into 200 μL of the thawed cell suspension or liver homogenate as an internal standard to control for varying extraction efficiency; 750 μL of an ice-cold 1:2 chloroform/methanol mixture was then added. Samples were sonicated for 30 min and phase separation induced by the addition of 250 μL each of chloroform and HPLC-grade water. Samples were centrifuged at 4° C. for 10 min and the lower lipid phase transferred to a clean tube. The remaining protein and aqueous layers were re-extracted with an additional 500 μL of chloroform. Lipid phases were combined and then dried under vacuum. Dried extract was re-constituted in 100% acetonitrile immediately before analysis. Samples were analyzed by ultra-performance liquid chromatography tandem mass spectrometry (UPLC-MS/MS) using a Waters Micromass Quattro Premier XE equipped with a Waters ACQUITY BEH C4 column (Waters Corp.). Samples were resolved starting at 60% mobile phase A (10 mM ammonium acetate and 0.05% formic acid in water) to 98% mobile phase B (60:40 acetonitrile:isopropanol) over 3 min with a linear gradient, held at 98% B for 1 min, then the column was equilibrated with 60% A for 1 min. The mass spectrometer was operated in positive ion mode with the following parameters: cone voltage 20 V, source temperature 125° C., desolvation temperature 400° C. Ion transition channels for MS/MS were 538→264 for C16:0 ceramide and 552→264 for C17:0 ceramide, both with a dwell time of 285 ms. Standard curves prepared from C16:0 ceramide (#860516, Avanti Polar Lipids, Alabaster, Ala.) dissolved in ethanol were used for quantitation and were linear from 4.1 nM-1,000 nM, with an R^2 of 0.98 or greater.
# 3T3-L1 cells were maintained in DMEM with 10% FBS and 1% penicillin-streptomycin until induced to differentiate. […]
smiles,measurement,setting,value
CCCCCCCCc1ccc([C@H]2CCN[C@@H]2CO)cc1.Cl [compound 893],Palmitate-induced C16:0 ceramide production,"MEFs, 3 h pre-treatment (893 5 μM, myriocin 10 μM, fumonisin B1 30 μM) then palmitate 250 μM 3 h",failed to block C16:0 ceramide generation; also recorded: without blocking palmitate-induced ceramide production
same,CerS6 inhibition,inferred from C16:0 ceramide generation in palmitate-treated cells,did not inhibit CerS6
